In paper PMC3679022, “A Cancer Specific Cell-Penetrating Peptide, BR2, for the Efficient Delivery of an scFv into Cancer Cells” (PLoS ONE, 2013):

Tested on: HeLa cells
Assay type: cell-based, human
Details: FACS
Method: To evaluate the internalization of FITC-labeled peptides, HeLa cells were seeded onto 12-well plates at a density of 2×10^5 cells per well and incubated for 24 h. FITC-labeled peptides, at various concentrations ranging from […], were then incubated with the cells for 30 min at 37°C. To compare the cellular uptake of peptides, cancer and normal cells were treated with FITC-labeled peptides (each, 10 µM) and incubated for 30 min at 37°C. Following the incubation, cells were washed three times with ice-cold PBS to remove excess extracellular complexes. Next, the cells were treated with trypsin (1 mg/ml) for 10 min to remove any remaining peptides bound to the cell surface. After trypsinization, the cells were collected by centrifugation (1,000×g for 5 min), resuspended with 500 µl ice-cold 2% FBS/PBS containing propidium iodide (PI), and then immediately analyzed (10,000 events/sample) by fluorescence activated cell sorting (FACS).
To understand further the cell-penetrating mechanism of peptides, the effects of temperature and metabolic inhibitors were examined. To elucidate the temperature dependency, HeLa cells were incubated at 4°C for 30 min prior to the addition of the peptides. Next, cells were treated with FITC-labeled peptides (each, 5 µM) at 4°C for 30 min. For the energy-depletion study, HeLa cells were preincubated with sodium azide (NaN3, 10 mM) at 37°C for 1 h and then incubated with FITC-labeled peptides (each, 5 µM) at 37°C for 30 min.
To study the role of endocytosis in peptide uptake, cells were pretreated with several endocytosis inhibitors at 37°C for 1 h: (i) amiloride (5 mM), which is known to block macropinocytosis by inhibiting a sodium channel; (ii) nocodazole (100 ng/ml), which inhibits the clathrin-mediated pathway; and (iii) methyl-ß-cyclodextrin (MßCD, 5 mM), which inhibits lipid raft-mediated processes by depleting cholesterol from the plasma membrane. All inhibitors were purchased from Sigma (St. Louis, MO).
To examine the effects of negatively charged components on the cell surface for peptide internalization, HeLa cells were pretreated with gangliosides (monosialoganglioside GM3 from canine blood), heparin sulfate, or sialic acid (Neu5Ac, all from Sigma) (20 µg/ml) for 30 min. For the inhibition of ganglioside biosynthesis, cells were pretreated with D-threo-1-phenyl-2-hexadecanoyl amino-3-morpholino-1-propanol (PPMP, 5 µM) for 48 h.
For all of these experimental conditions, flow cytometry analyses were performed with live cells using a Becton Dickinson FACSCalibur flow cytometer (BD Biosciences, San Diego, CA). In each case, the fluorescence of 10,000 viable cells was acquired. Viable cells were gated based on a sideward and forward scatter. For data analysis, WinMDI software (Joe Trotter, Scripps Research Institute, La Jolla, CA) was used. The statistical significance was evaluated by Student’s t-test at a 95% confidence interval.
Figure 2 BR2 specifically penetrates cancer cell membranes in a concentration-dependent manner. (A) Analysis of the cell-penetrating efficiency of each peptide in different cell types by flow cytometry. FITC-labeled Tat, BR1 and BR2 peptides (10 µM) were added to different cell types: HeLa, HCT116 and B16/F10 cancer cells and HaCat, BJ and NIH 3T3 normal cells. After 30 min of incubation at 37°C, the FITC-positive cells were counted by flow cytometry. Values represent the percentage of fluorescence-positive cells in the total cell population. (B) Quantitative assessment of cell penetration of each peptide by flow cytometry. HeLa cells were incubated with FITC-labeled peptides at concentrations of 1, 2, 5, or 10 µM for 30 min at 37°C. Afterwards the cells were washed with cold PBS and harvested and cellular fluorescence was analyzed by flow cytometry. […] Prior to analysis, extracellular fluorescence of surface bound peptides was removed by a trypsin treatment (1 mg/ml for 10 min). […]

Sequence: RAGLQFPVGRLLRRLLR [BR2]
- decrease of cellular uptake at 4°C compared to 37°C (FITC-labeled peptide 5 µM, 30 min at 4°C after preincubation at 4°C): 88.5%
- inhibition of penetration by methyl-ß-cyclodextrin (MßCD) (MßCD 5 mM pretreatment 1 h 37°C, peptide 30 min 37°C, mean of three experiments): 44.6%
- reduction of uptake by ATP depletion (sodium azide) (NaN3 10 mM preincubation 1 h 37°C, then FITC-labeled peptide 5 µM 30 min 37°C): 67.7%
- effect of ganglioside synthesis inhibitor PPMP on peptide uptake (PPMP 5 µM pretreatment 48 h): significantly reduced
- inhibition of cellular uptake by amiloride (amiloride 5 mM pretreatment 1 h 37°C, peptide 30 min 37°C, mean of three experiments): 36.5%
- effect of exogenous gangliosides on peptide penetration (gangliosides (GM3) 20 µg/ml, 30 min): partially inhibited
- effect of exogenous heparin on peptide uptake (heparin 20 µg/ml, 30 min): almost no effect
- effect of nocodazole on peptide transduction (nocodazole 100 ng/ml pretreatment 1 h 37°C, peptide 30 min 37°C): negligible effect
- effect of exogenous sialic acids on peptide penetration (sialic acid (Neu5Ac) 20 µg/ml, 30 min): partially inhibited
